Measured values: US9187472B2 (AbbVie Inc., priority 2012, dated 2015)

What was measured:
[1] = system: PC3 cells; assay: NAMPT Cell Proliferation Assay; type: cell-based; conditions: Homo sapiens, PC-3, 120 h, 5 days incubation, cell viability by Cell Titer Glo
Method in brief: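 PC3 cells were plated at 500 cells/well in RPMI with 10% heat-inactivated FBS, left to attach overnight, then given compounds in 10-fold dilutions from 10 μM to 1×10^−5 μM. After 5 days at 37° C and 5% CO2, viability was read by luminescence and IC50s came from sigmoidal fits of percent inhibition.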

[2] = biological target: NAMPT (Homo sapiens, UniProt P43490); assay: TR-FRET Binding Assay of NAMPT with PRPP; conditions: with 200 μM PRPP and 2.5 mM ATP; 2 nM NAMPT, 2 nM probe, 16 hours equilibration
Sequence of NAMPT (P43490 whole entry): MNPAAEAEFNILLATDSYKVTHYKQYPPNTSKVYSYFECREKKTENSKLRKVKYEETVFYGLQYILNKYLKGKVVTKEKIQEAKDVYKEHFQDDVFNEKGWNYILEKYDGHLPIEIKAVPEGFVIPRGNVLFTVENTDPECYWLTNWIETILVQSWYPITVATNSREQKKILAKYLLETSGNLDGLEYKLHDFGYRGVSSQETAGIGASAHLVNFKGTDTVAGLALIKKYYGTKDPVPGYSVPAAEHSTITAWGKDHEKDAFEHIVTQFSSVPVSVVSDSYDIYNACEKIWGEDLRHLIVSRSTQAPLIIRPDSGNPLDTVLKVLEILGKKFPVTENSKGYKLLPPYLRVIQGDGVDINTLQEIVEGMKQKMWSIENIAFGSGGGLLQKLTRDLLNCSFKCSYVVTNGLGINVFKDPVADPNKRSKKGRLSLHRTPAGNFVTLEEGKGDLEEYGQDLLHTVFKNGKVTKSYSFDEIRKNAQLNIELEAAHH
Method in brief: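 TR-FRET probe-displacement binding with 2 nM NAMPT, 2 nM probe and 1 nM Tb-anti-His antibody, run in the presence of 200 μM PRPP and 2.5 mM ATP at 2% DMSO. Equilibrated 16 hours before reading so test compounds could undergo enzymatic modification.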

[3] = biological target: NAMPT (human, recombinant, C-terminally His-tagged) (Homo sapiens, UniProt P43490); assay: Time-Resolved Fluorescence Resonance Energy Transfer (TR-FRET) Binding Assay of NAMPT; conditions: without substrates; 6.8 nM NAMPT, 200 nM probe, 3 hours equilibration
Sequence of NAMPT (human, recombinant, C-terminally His-tagged) (P43490 whole entry): as above
Method in brief: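 11-pt half-log compound series; final 6.8 nM NAMPT, 200 nM OG488 nicotinamide-competitive probe, 1 nM Tb-anti-His Ab, 2% DMSO, HEPES pH 7.5/NaCl/MgCl2/DTT/glycerol buffer. 3 h RT equilibration. Em520/Em495 ratio (Ex 337 nm), control-normalized, 4-parameter fit → IC50.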

IC50 [1] | IC50 [2] | IC50 [3] | SMILES
0.0174 µM | 0.000991 µM | 0.168 µM | O=C(NCc1ccn2ccnc2c1)Nc1ccc(C2CCN(C(=O)CCC(F)(F)F)CC2)cc1 [Example 714, 1-(imidazo[1,2-a]pyridin-7-ylmethyl)-3-{4-[1-(4,4,4-trifluorobutanoyl)piperidin-4-yl]phenyl}urea]
0.131 µM | 0.001 µM | 0.71 µM | O=C(NCc1ccn2ccnc2c1)c1ccc(C2CCN(C(=O)c3cccc(C(F)(F)F)c3)C2)cc1 (stereo not drawn) [Example 620, N-(imidazo[1,2-a]pyridin-7-ylmethyl)-4-{1-[3-(trifluoromethyl)benzoyl]pyrrolidin-3-yl}benzamide]
0.000896 µM | 0.000414 µM | 0.0276 µM | Cc1cc(C(=O)N2CCC(c3ccc(C(=O)NCc4ccn5ccnc5c4)s3)C2)c(C)o1 (stereo not drawn) [Example 778, 5-{1-[(2,5-dimethylfuran-3-yl)carbonyl]pyrrolidin-3-yl}-N-(imidazo[1,2-a]pyridin-7-ylmethyl)thiophene-2-carboxamide]
0.0673 µM | 0.000553 µM | 0.369 µM | O=C(Nc1ccc(C2=CCN(C(=O)C3CCCO3)CC2)cc1)Nc1ccc2nccn2c1 (stereo not drawn) [Example 33, 1-imidazo[1,2-a]pyridin-6-yl-3-{4-[1-(tetrahydrofuran-2-ylcarbonyl)-1,2,3,6-tetrahydropyridin-4-yl]phenyl}urea]
0.0514 µM | 0.000444 µM | 0.356 µM | CN1CCC(C(=O)N2CC=C(c3ccc(NC(=O)Nc4ccc5nccn5c4)cc3)CC2)CC1 [Example 36, 1-imidazo[1,2-a]pyridin-6-yl-3-(4-{1-[(1-methylpiperidin-4-yl)carbonyl]-1,2,3,6-tetrahydropyridin-4-yl}phenyl)urea]
0.0062 µM | 0.000764 µM | 0.0896 µM | CC1(C(=O)N2CCC(c3ccc(C(=O)NCc4ccn5ccnc5c4)s3)C2)CC1 (stereo not drawn) [Example 795, N-(imidazo[1,2-a]pyridin-7-ylmethyl)-5-{1-[(1-methylcyclopropyl)carbonyl]pyrrolidin-3-yl}thiophene-2-carboxamide]
0.00131 µM | 0.000263 µM | 0.0257 µM | O=C(NCc1ccc2nccn2c1)c1ccc(-c2cnn(CC3CCCOC3)c2)s1 (stereo not drawn) [Example 206, N-(imidazo[1,2-a]pyridin-6-ylmethyl)-5-[1-(tetrahydro-2H-pyran-3-ylmethyl)-1H-pyrazol-4-yl]thiophene-2-carboxamide]
0.00993 µM | 0.000175 µM | 0.0476 µM | O=C(NCc1ccn2ccnc2c1)c1ccc(C2CCN(C(=O)c3ccccc3)C2)cc1 (stereo not drawn) [Example 370, 4-(1-benzoylpyrrolidin-3-yl)-N-(imidazo[1,2-a]pyridin-7-ylmethyl)benzamide]
0.0404 µM | 0.000563 µM | 0.266 µM | CCC(C)CC(=O)N1CC(c2ccc(C(=O)NCc3ccn4ccnc4c3)cc2)C1 (stereo not drawn) [Example 630, N-(imidazo[1,2-a]pyridin-7-ylmethyl)-4-[1-(3-methylpentanoyl)azetidin-3-yl]benzamide]
0.00508 µM | 0.000251 µM | 0.145 µM | CC(C)CC(=O)N1CCC(c2ccc(C(=O)NCc3ccn4ccnc4c3)cc2)CC1 [Example 534, N-(imidazo[1,2-a]pyridin-7-ylmethyl)-4-[1-(3-methylbutanoyl)piperidin-4-yl]benzamide]
0.00125 µM | 0.000755 µM | 0.0236 µM | Cc1ccc(C(=O)N2CCC(c3ccc(C(=O)NCc4ccn5ccnc5c4)s3)C2)cc1 (stereo not drawn) [Example 718, N-(imidazo[1,2-a]pyridin-7-ylmethyl)-5-[1-(4-methylbenzoyl)pyrrolidin-3-yl]thiophene-2-carboxamide]
0.00953 µM | 0.000773 µM | 0.0726 µM | O=C(NCc1ccn2ccnc2c1)c1ccc(C2CCN(C(=O)c3ccncc3)C2)s1 (stereo not drawn) [Example 773, N-(imidazo[1,2-a]pyridin-7-ylmethyl)-5-[1-(pyridin-4-ylcarbonyl)pyrrolidin-3-yl]thiophene-2-carboxamide]
0.000539 µM | 0.000311 µM | 0.00976 µM | Cc1noc(C)c1CC(=O)N(C[C@H]1CCCO1)c1ncc(C(=O)NCc2ccn3ccnc3c2)s1 [Example 199, 2-{[(3,5-dimethyl-1,2-oxazol-4-yl)acetyl][(2R)-tetrahydrofuran-2-ylmethyl]amino}-N-(imidazo[1,2-a]pyridin-7-ylmethyl)-1,3-thiazole-5-carboxamide]
0.915 µM | 0.00126 µM | 3.22 µM | CC(=O)N1CCC(Oc2ccc(C(=O)NCc3ccc4nccn4c3)cc2)CC1 [Example 160, 4-[(1-acetylpiperidin-4-yl)oxy]-N-(imidazo[1,2-a]pyridin-6-ylmethyl)benzamide]
0.301 µM | 0.00109 µM | 0.842 µM | O=C(NCc1ccn2ccnc2c1)c1ccc(C2CCN(C(=O)c3cncs3)C2)cc1 (stereo not drawn) [Example 586, N-(imidazo[1,2-a]pyridin-7-ylmethyl)-4-[1-(1,3-thiazol-5-ylcarbonyl)pyrrolidin-3-yl]benzamide]
6.74 µM | 0.000291 µM | > 10 µM | COCCN1CCN(c2ncc(C(=O)NCc3ccn4ccnc4c3)s2)CC1 [Example 357, N-(imidazo[1,2-a]pyridin-7-ylmethyl)-2-[4-(2-methoxyethyl)piperazin-1-yl]-1,3-thiazole-5-carboxamide]
0.0125 µM | 0.000232 µM | 0.261 µM | CC(C)(O)C(=O)N1CCC(Oc2ccc(NC(=O)NCc3ccn4ccnc4c3)cc2)CC1 [Example 447, 1-(4-{[1-(2-hydroxy-2-methylpropanoyl)piperidin-4-yl]oxy}phenyl)-3-(imidazo[1,2-a]pyridin-7-ylmethyl)urea]
0.325 µM | 0.000396 µM | 0.409 µM | O=C(Nc1ccc(C(=O)NCC2CCCO2)cc1)Nc1ccc2nccn2c1 (stereo not drawn) [Example 16]
0.0659 µM | 0.000536 µM | 0.851 µM | O=C(NCCCCC1CCN(C(=O)C2CCOC2)CC1)Nc1ccc2nccn2c1 (stereo not drawn) [Example 72, 1-imidazo[1,2-a]pyridin-6-yl-3-{4-[1-(tetrahydrofuran-3-ylcarbonyl)piperidin-4-yl]butyl}urea]
0.113 µM | 0.000383 µM | 0.667 µM | CC(C)(C)OC(=O)N1CCC(c2ccc(NC(=O)Nc3ccc4nccn4c3)cc2)CC1 [Example 89, tert-butyl 4-{4-[(imidazo[1,2-a]pyridin-6-ylcarbamoyl)amino]phenyl}piperidine-1-carboxylate]
0.0526 µM | 0.00143 µM | 0.523 µM | CC(C)(C)OC(=O)N1CCC(CCCCNC(=O)Nc2ccc3nccn3c2)CC1 [Example 58, tert-butyl 4-{4-[(imidazo[1,2-a]pyridin-6-ylcarbamoyl)amino]butyl}piperidine-1-carboxylate]
0.223 µM | 0.00355 µM | 2.21 µM | O=C(NCc1ccc2nccn2c1)c1ccc(OC2CCN(C(=O)CC3CC3)CC2)cc1 [Example 172, 4-{[1-(cyclopropylacetyl)piperidin-4-yl]oxy}-N-(imidazo[1,2-a]pyridin-6-ylmethyl)benzamide]
0.05 µM | 0.000391 µM | 0.223 µM | O=C(NCc1ccn2ccnc2c1)c1ccc(C2CCN(C(=O)Cc3ccccc3)C2)cc1 (stereo not drawn) [Example 731, N-(imidazo[1,2-a]pyridin-7-ylmethyl)-4-[1-(phenylacetyl)pyrrolidin-3-yl]benzamide]
0.82 µM | 0.00036 µM | 0.531 µM | CC(=O)N1CCC(c2ccc(C(=O)NCc3ccn4ccnc4c3)cc2)CC1 [Example 313, 4-(1-acetylpiperidin-4-yl)-N-(imidazo[1,2-a]pyridin-7-ylmethyl)benzamide]
0.021 µM | 0.000607 µM | 0.0502 µM | O=C(NCc1ccn2ccnc2c1)Nc1ccc(C2CCN(C(=O)Cc3ccccc3)CC2)cc1 [Example 716, 1-(imidazo[1,2-a]pyridin-7-ylmethyl)-3-{4-[1-(phenylacetyl)piperidin-4-yl]phenyl}urea]
0.0719 µM | 0.000276 µM | 0.301 µM | O=C(NCc1ccn2ccnc2c1)Nc1ccc(OC2CN(C(=O)[C@H]3CCCO3)C2)cc1 [Example 431, 1-(imidazo[1,2-a]pyridin-7-ylmethyl)-3-[4-({1-[(2R)-tetrahydrofuran-2-ylcarbonyl]azetidin-3-yl}oxy)phenyl]urea]
0.147 µM | 0.000226 µM | 2.71 µM | O=C(NCc1ccn2ccnc2c1)c1ccc(OC2CCN(C(=O)C3CCOCC3)CC2)cc1 [Example 420, N-(imidazo[1,2-a]pyridin-7-ylmethyl)-4-{[1-(tetrahydro-2H-pyran-4-ylcarbonyl)piperidin-4-yl]oxy}benzamide]
0.00421 µM | 0.000277 µM | 0.0532 µM | O=C(NCc1ccn2ccnc2c1)c1ccc(C2CCN(C(=O)c3cccs3)CC2)cc1 [Example 503, N-(imidazo[1,2-a]pyridin-7-ylmethyl)-4-[1-(thiophen-2-ylcarbonyl)piperidin-4-yl]benzamide]
0.00597 µM | 0.0009 µM | 0.06 µM | O=C(NCc1ccn2ccnc2c1)c1ccc(C2CCN(C(=O)c3ccccc3C(F)(F)F)CC2)cc1 [Example 708, N-(imidazo[1,2-a]pyridin-7-ylmethyl)-4-{1-[2-(trifluoromethyl)benzoyl]piperidin-4-yl}benzamide]
